# Test results reported in ChEMBL document CHEMBL1201862, “PubChem BioAssay data set” (2004).
# Calls of active or inactive are those of the source.
# Tests used:
# [1] = target: Procathepsin L (Homo sapiens, UniProt P07711)
# [2] = target: Aspartyl aminopeptidase (Plasmodium falciparum 3D7, UniProt Q8I2J3)
# [3] = target: X-box-binding protein 1 (Homo sapiens, UniProt P17861); type: functional, Cricetulus griseus;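 further: confirmatory dose-response counter-screen serving a CHOP assay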
# [4] = viability of PTEN-deleted HCT116 cells – cell-based, HCT116 PTEN knockout, dose response (AID 1047); type: functional;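 further: HCT116 colon tumor cells with PTEN knocked out; cells exposed to compound for 60 hours before readout; potency for loss of cell viability measured by luminescence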
# [5] = viability of uninfected HEp-2 cells – cell-based, HTS, cytotoxicity control for RSV inhibitor project, dose response (AID 2410); type: functional; details: human respiratory syncytial virus
# [6] = tested on: INS1; assay: INS-1E survival protection against cytokine death – cell-based, luminescence, retest, dose response (AID 449756); type: functional; details: Rattus norvegicus;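 further: cell death triggered by IL-1 beta plus TNF-alpha plus IFN-gamma mixture; protective hits raise ATP signal compared with cytokine alone wells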
# [7] = viability of HCT116 lacking mutant beta-catenin – cell-based, human colon tumor, dose response (AID 1045); type: functional;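 further: HCT116 colon tumor cells with beta catenin knocked out; cells exposed to compound for 60 hours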
# [8] = cells; type: functional
# [9] = target: Acyl-homoserine lactone acylase PvdQ (Pseudomonas aeruginosa (strain LESB58), UniProt Q9I194); assay: PvdQ acylase enzyme activity blockers – biochemical, fluorescence, plate reader and imaging, cherry-picks, dose response (AID 493231)
# Chain of Acyl-homoserine lactone acylase PvdQ (Q9I194 24-193 limits assumed): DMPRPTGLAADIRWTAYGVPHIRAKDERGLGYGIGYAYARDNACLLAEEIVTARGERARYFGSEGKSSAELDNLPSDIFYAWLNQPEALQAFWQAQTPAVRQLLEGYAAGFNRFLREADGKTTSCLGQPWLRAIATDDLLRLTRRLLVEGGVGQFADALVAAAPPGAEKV
# Chain of Acyl-homoserine lactone acylase PvdQ (Q9I194 217-762 limits assumed): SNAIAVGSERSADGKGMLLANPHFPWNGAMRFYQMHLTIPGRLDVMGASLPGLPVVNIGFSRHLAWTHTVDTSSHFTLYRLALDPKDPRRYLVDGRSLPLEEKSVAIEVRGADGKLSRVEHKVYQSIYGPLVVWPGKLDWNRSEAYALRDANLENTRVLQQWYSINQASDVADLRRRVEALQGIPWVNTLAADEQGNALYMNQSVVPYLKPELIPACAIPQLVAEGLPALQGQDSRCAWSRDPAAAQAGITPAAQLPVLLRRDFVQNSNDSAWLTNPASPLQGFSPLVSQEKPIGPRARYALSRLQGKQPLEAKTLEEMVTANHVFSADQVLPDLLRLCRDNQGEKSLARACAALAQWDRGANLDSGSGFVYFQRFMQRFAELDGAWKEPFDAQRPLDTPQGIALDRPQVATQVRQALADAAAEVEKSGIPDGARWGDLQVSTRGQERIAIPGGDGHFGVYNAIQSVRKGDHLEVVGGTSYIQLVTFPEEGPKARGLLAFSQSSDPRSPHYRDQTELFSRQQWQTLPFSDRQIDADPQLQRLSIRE
# [10] = target: T1, Estrogen receptor (Homo sapiens, UniProt P03372);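 further: potency for inhibiting coactivator peptide recruitment to the receptor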
# T1 sequence (P03372 whole entry): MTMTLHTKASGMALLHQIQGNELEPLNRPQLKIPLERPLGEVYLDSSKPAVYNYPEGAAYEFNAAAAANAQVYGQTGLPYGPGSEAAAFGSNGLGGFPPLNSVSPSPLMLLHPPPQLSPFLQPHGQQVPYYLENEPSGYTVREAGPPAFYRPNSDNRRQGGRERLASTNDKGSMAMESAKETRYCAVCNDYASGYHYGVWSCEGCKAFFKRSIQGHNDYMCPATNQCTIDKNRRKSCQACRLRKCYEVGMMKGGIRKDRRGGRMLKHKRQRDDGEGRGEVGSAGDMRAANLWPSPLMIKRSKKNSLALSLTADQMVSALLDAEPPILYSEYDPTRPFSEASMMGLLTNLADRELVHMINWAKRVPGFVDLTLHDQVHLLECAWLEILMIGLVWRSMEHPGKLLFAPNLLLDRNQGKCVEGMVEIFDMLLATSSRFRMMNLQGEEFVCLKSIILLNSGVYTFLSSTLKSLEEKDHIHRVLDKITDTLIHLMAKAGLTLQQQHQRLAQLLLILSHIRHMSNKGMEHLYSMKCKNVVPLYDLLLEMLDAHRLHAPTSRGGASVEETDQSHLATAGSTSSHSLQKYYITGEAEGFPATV
# [11] = antiviral protection against BTV-induced cell death – arbovirus, BSR cells, confirmation (AID 1250); type: functional;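 further: protection from viral cytopathic effect measured as cell viability by ATP luminescence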
# [12] = cells
# [13] = target: Protein Tat (Human immunodeficiency virus type 1 group M subtype B (isolate HXB2)(HIV-1), UniProt P04608); type: functional;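 further: tat binding to TAR RNA read out by fluorescence polarization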
# [14] = viability loss in THP-1 monocytes – THP-1 cells, cytotoxicity control for Vif-APOBEC3G degradation inhibitor project, dose response (AID 1117359); type: functional; details: THP-1
# [15] = target: T2, Estrogen receptor beta (Homo sapiens, UniProt Q92731);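 further: recombinant ER-beta bound to coactivator SRC1 peptide in presence of estradiol agonist; inhibitors block coactivator peptide binding and lower the FRET signal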
# T2 sequence (Q92731 whole entry): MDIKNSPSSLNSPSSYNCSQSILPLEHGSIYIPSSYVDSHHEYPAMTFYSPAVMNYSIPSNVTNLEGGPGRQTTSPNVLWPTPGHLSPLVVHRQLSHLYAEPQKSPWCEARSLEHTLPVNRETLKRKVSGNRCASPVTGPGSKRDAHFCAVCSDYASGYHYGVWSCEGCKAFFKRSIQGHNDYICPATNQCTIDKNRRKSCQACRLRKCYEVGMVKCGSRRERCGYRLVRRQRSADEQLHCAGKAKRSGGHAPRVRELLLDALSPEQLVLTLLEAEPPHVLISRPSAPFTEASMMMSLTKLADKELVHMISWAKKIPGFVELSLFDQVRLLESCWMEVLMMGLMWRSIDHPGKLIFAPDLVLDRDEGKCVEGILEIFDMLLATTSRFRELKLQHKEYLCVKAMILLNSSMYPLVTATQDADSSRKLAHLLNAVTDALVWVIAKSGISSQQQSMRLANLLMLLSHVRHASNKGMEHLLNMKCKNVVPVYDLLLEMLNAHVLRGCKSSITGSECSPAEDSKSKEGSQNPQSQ
# [16] = target: T2, Estrogen receptor beta; assay: blockers of SRC-3 recruitment to ERβ – biochemical, ELISA, streptavidin-HRP readout, orthogonal assay, confirmation (AID 1060)
# [17] = target: Ephrin type-A receptor 4 (Mus musculus, UniProt Q03137); assay: EphA4 ligand-binding antagonists – biochemical, colorimetric, mouse EphA4, primary screen (AID 689); type: functional
# [18] = target: Induced myeloid leukemia cell differentiation protein Mcl-1 (Homo sapiens, UniProt Q07820); type: functional
# Chain of Induced myeloid leukemia cell differentiation protein Mcl-1 (Q07820 whole entry, the tested form may be a part): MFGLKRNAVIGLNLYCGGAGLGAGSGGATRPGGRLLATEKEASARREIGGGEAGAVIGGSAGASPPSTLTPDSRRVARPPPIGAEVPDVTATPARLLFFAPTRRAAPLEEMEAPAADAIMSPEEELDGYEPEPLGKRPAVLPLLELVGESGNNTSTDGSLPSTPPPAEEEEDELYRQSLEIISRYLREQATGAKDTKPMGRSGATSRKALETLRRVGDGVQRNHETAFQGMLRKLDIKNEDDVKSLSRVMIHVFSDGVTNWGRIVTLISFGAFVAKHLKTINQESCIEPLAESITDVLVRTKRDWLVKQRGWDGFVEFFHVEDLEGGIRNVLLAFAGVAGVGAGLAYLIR
# [19] = target: T3, Nucleotide-binding oligomerization domain-containing protein 1 (Homo sapiens, UniProt Q9Y239); assay: blockers of NOD1 pathway activity – revised, SAR follow-up (AID 2333); type: functional
# T3 sequence (Q9Y239 whole entry): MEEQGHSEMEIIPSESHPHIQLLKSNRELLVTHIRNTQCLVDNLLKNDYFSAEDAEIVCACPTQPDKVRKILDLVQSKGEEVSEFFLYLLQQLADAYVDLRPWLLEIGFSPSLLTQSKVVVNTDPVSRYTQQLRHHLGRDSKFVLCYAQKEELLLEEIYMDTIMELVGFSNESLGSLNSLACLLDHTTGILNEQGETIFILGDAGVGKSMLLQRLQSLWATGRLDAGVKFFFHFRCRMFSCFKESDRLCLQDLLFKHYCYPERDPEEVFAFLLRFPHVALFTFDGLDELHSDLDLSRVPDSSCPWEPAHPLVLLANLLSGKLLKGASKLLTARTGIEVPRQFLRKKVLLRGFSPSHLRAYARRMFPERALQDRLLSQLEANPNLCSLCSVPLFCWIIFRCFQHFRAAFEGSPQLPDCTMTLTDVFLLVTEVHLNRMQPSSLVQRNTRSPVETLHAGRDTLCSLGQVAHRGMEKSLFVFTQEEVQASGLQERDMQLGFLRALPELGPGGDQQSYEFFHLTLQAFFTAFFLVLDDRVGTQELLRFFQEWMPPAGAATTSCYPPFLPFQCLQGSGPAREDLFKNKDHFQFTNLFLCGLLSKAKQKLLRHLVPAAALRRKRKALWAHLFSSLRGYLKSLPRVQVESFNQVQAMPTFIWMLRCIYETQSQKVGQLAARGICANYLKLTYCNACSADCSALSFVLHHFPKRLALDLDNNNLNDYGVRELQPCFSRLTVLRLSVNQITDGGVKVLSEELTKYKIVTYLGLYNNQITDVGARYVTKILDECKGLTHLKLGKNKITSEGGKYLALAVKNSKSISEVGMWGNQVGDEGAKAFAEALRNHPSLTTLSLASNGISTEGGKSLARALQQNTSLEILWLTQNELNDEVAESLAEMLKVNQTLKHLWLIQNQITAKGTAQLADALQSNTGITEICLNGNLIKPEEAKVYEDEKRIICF
# [20] = target: Nucleotide-binding oligomerization domain-containing protein 2 (Homo sapiens, UniProt Q9HC29); assay: PubChem AID 2334; type: functional
# Chain of Nucleotide-binding oligomerization domain-containing protein 2 (Q9HC29 whole entry, the tested form may be a part): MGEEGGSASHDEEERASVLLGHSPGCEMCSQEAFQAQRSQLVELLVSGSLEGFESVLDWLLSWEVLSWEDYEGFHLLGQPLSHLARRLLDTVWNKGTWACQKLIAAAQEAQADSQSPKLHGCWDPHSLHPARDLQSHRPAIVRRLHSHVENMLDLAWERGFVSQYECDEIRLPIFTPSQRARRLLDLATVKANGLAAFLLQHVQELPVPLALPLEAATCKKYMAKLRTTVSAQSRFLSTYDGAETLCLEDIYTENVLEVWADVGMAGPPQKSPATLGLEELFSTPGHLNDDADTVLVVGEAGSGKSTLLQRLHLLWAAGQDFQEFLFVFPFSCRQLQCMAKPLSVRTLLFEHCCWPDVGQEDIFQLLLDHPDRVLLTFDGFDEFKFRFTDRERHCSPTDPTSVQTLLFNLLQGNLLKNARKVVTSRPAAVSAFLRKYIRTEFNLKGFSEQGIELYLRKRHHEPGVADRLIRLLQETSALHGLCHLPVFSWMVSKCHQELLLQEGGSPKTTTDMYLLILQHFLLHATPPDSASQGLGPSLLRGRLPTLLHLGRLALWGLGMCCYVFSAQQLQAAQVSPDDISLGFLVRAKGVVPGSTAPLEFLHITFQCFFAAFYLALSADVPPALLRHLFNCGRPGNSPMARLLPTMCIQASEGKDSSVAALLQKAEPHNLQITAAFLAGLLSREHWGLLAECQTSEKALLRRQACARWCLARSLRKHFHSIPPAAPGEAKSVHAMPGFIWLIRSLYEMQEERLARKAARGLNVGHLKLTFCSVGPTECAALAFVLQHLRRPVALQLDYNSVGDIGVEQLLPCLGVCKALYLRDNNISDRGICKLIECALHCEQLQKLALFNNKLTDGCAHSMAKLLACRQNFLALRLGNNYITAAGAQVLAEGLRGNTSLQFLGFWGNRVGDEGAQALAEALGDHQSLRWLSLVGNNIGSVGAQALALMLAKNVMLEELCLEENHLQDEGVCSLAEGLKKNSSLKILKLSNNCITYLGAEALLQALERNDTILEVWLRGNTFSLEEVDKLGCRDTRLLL
# [21] = target: Tumor necrosis factor (Homo sapiens, UniProt P01375); assay: analog potency on TNFa NF-kB signaling – cell-based, revised, SAR follow-up (AID 2337); type: functional
# Chain of Tumor necrosis factor (P01375 whole entry): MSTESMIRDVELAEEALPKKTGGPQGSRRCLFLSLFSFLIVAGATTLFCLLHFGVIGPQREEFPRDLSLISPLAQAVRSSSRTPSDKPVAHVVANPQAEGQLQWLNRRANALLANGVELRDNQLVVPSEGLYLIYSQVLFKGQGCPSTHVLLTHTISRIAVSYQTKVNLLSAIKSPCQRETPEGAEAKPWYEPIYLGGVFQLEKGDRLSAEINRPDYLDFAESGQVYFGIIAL
# [22] = tested on: HEK293; assay: cells; details: Homo sapiens;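 further: cells exposed to compound for 14 hours overnight before viability readout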
# [23] = target: T4, Zinc finger protein mex-5 (Caenorhabditis elegans, UniProt Q9XUB2); assay: potency of MEX-5 RNA-binding blockers – biochemical, C. elegans, fluorescence polarization, dose response (AID 1960)
# T4 sequence (Q9XUB2 whole entry): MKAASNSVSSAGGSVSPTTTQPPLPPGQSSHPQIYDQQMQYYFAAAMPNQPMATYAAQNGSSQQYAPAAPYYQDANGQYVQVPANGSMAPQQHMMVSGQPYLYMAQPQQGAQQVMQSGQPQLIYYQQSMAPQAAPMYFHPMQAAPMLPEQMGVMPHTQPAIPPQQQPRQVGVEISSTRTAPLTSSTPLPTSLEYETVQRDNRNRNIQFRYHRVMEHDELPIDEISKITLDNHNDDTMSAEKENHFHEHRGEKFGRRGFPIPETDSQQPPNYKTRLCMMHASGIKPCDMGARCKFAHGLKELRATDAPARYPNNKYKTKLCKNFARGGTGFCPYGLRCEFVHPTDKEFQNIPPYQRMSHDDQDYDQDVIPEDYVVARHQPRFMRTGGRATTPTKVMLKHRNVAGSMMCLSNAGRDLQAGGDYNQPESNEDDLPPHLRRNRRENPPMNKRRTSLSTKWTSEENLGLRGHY
# [24] = target: T5, Coagulation factor XII (Homo sapiens, UniProt P00748); type: functional;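 further: activated factor XIIa alpha cleaving a fluorogenic AMC peptide substrate; inhibitor potency from loss of enzyme activity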
# T5 sequence (P00748 whole entry): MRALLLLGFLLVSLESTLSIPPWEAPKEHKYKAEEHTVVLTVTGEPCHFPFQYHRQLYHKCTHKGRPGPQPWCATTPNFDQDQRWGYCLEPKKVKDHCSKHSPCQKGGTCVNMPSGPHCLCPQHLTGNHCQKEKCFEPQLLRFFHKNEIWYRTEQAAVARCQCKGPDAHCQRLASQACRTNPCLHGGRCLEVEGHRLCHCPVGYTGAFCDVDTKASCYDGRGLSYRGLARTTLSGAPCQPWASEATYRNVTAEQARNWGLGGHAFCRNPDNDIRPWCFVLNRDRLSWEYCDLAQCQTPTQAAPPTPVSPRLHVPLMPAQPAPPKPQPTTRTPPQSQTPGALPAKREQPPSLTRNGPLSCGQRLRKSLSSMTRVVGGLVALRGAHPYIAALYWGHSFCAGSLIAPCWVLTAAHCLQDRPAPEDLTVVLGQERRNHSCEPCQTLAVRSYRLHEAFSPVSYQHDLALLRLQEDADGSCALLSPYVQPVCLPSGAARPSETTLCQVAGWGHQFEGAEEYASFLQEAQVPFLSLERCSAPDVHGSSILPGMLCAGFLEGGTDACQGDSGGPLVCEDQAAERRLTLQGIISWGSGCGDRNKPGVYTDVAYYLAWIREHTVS
# [25] = target: T6, Tyrosine-protein phosphatase non-receptor type 7 (Homo sapiens, UniProt P35236); assay: redox-active compounds inhibiting HePTP phosphatase – biochemical, fluorescence, mechanism study (AID 2068); type: functional
# T6 sequence (P35236 whole entry): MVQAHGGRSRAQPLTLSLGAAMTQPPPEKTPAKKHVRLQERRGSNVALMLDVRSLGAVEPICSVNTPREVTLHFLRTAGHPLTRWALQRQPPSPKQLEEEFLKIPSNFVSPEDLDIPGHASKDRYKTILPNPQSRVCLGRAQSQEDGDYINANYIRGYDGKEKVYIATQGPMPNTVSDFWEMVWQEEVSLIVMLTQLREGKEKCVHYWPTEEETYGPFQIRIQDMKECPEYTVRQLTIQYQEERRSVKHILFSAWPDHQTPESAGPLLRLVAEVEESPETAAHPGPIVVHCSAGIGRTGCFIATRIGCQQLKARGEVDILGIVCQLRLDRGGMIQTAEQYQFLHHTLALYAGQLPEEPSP
# [26] = target: T7, RNA-binding protein pos-1 (Caenorhabditis elegans, UniProt G5EF15); assay: disruptors of C. elegans POS-1 RNA interaction – biochemical, fluorescence polarization, dose response (AID 1964);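 further: purified POS-1 fused to maltose binding protein made in E. coli; potency of compounds blocking POS-1 binding to fluorescent RNA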
# T7 sequence (G5EF15 whole entry): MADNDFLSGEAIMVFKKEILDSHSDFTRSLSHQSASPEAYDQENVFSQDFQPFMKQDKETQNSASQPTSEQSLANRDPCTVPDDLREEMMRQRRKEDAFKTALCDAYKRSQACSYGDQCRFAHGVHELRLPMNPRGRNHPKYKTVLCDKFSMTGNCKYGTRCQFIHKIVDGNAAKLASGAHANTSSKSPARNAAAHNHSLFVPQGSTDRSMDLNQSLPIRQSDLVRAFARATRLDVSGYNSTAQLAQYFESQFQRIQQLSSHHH
# [27] = target: Genome polyprotein (dengue virus type 2, UniProt P29990); assay: flavivirus cap methylation enzyme inhibition – biochemical, confirmation dose response, primary screen (AID 588689); type: functional
# Chain of Genome polyprotein (P29990 2492-3391 limits assumed): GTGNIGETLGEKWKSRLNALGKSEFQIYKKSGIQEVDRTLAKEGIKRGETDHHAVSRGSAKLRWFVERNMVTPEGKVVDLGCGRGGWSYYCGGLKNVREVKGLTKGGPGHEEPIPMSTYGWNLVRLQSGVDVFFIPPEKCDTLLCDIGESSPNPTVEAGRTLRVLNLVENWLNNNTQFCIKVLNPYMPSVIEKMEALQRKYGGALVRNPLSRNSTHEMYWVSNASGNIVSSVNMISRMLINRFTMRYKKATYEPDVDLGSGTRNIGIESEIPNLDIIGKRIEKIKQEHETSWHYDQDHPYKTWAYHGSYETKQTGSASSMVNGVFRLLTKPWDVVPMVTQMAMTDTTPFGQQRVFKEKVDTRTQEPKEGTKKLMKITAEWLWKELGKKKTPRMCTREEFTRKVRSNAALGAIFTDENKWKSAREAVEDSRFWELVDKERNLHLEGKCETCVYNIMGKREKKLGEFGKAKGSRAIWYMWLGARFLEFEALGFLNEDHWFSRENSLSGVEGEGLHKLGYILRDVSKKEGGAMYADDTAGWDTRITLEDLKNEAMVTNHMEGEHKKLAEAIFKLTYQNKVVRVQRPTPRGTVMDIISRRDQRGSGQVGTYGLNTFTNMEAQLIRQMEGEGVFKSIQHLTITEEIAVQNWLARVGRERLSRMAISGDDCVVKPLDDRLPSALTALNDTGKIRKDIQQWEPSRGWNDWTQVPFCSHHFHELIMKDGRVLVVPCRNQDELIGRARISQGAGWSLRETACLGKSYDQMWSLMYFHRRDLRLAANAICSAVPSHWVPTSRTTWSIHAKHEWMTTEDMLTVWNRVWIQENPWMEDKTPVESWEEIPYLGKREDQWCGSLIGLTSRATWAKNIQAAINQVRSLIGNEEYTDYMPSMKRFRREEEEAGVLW
# Chain of Aspartyl aminopeptidase (Q8I2J3 whole entry): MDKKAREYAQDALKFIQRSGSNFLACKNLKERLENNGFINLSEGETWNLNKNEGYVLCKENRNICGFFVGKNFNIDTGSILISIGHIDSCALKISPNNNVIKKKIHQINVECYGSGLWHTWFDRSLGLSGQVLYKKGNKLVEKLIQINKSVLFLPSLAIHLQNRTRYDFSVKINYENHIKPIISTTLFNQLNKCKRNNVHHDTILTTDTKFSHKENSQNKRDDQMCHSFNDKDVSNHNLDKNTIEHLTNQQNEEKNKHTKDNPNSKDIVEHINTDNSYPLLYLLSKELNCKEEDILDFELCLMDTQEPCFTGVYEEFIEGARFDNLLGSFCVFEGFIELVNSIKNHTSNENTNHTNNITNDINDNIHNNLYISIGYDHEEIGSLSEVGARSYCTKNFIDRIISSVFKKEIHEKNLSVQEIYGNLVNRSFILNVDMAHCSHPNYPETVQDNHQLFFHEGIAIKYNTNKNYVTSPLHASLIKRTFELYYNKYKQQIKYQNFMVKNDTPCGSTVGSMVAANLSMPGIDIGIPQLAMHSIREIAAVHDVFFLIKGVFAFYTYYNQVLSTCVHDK
# Chain of Procathepsin L (P07711 whole entry): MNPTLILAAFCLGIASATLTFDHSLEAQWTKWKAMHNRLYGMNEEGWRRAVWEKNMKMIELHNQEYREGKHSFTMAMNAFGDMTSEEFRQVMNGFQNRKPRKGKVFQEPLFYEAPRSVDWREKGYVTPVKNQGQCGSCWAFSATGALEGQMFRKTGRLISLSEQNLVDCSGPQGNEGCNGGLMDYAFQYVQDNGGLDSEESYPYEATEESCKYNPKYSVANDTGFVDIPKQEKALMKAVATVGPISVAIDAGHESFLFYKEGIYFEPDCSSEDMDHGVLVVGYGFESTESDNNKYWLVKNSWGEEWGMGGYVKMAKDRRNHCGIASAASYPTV
# Chain of X-box-binding protein 1 (P17861 whole entry): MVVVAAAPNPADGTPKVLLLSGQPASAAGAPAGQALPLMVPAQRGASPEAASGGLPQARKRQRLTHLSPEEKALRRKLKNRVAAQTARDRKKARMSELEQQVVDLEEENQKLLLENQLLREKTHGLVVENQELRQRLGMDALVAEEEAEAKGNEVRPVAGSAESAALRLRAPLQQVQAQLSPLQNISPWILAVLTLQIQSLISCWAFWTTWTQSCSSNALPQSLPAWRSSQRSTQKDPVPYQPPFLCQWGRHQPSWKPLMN
smiles,measurement,setting,value
O=C(Nc1cccc(C(F)(F)F)c1)Nn1cnnc1,IC50,[1],> 59.6 µM (not active)
same,IC50,[2],2.32 µM (active)
CCC1(c2ccc(F)cc2)NC(=O)N(CC(=O)Nc2ccc(-c3nc4ccc(C)cc4s3)cc2)C1=O (centres undefined),Absolute IC50 (XBP1),[3],10 µM
same,EC50,[4],7.37 µM (active)
same,CC50,[5],15.5 µM (active)
same,AC50,[6],8.98 µM (active)
same,EC50,[7],12.3 µM (active)
O=C(OCc1ccc(Cl)c(Cl)c1)c1ccccn1,IC50,[8],16.9 µM (active)
same,AC50,[9],29.3 µM (active)
CCCCCc1c(C)nc(Nc2ccccc2)nc1O,Absolute IC50 (XBP1),[3],10 µM
Cn1c(SCC(=O)Nc2sccc2C#N)nnc1-c1ccccc1,IC50,[10],17.1 µM (active)
O=C(Nc1ccc(Cl)c(Cl)c1)Nn1cnnc1,IC50,[1],> 59.6 µM (not active)
same,IC50,[2],0.837 µM (active)
CC(C)C[C@H](NC(=O)c1[nH]cnc1C(=O)N1CCN(C(=O)OC(C)(C)C)CC1)C(=O)OC(C)(C)C,IC50,[11],34.8 µM (active)
same,IC50,[12],1.43 µM (active)
same,CC50,[5],13.3 µM (active)
Cc1onc(-c2c(F)cccc2Cl)c1C(=O)OCC(=O)NCc1ccco1,IC50,[10],38.6 µM (not active)
CCCSC1=N/C(=C\C=C\c2ccco2)C(=O)S1,IC50,[13],3.05 µM (inconclusive)
same,CC50,[14],> 40 µM (active)
same,IC50,[15],9.71 µM (active)
same,IC50,[16],> 50 µM (not active)
same,IC50,[17],11.9 µM (active)
same,IC50,[18],3.97 µM (active)
COc1ccc(C(=O)Nc2nc3ccccc3n2Cc2ccc(Cl)cc2)cc1,IC50,[19],> 20 µM (inactive)
same,IC50,[20],> 20 µM (inactive)
same,IC50,[21],> 20 µM (inactive)
same,IC50,[22],> 20 µM (inactive)
CCOC1=CC(=O)OC(c2ccccc2)C1 (centres undefined),AC50,[9],3.54 µM (active)
Nc1nc2ccccc2n1C(=O)Cc1ccccc1,IC50,[19],> 20 µM (inactive)
same,IC50,[20],> 20 µM (inactive)
same,IC50,[21],> 20 µM (inactive)
same,IC50,[22],> 20 µM (inactive)
c1coc(-c2nc3ccccc3nc2-c2ccco2)c1,EC50,[23],12 µM (active)
same,IC50,[24],> 50 µM (inactive)
same,IC50,[16],< 0.023 µM (not active)
same,IC50,[25],12.4 µM (active)
same,EC50,[26],21.6 µM (active)
same,IC50,[18],< 0.4 µM (active)
same,IC50,[27],> 100 µM (active)
